Measurements from ChEMBL document CHEMBL1148888, “Synthesis and antibacterial activity of 5-deoxy-5-episubstituted arbekacin derivatives” (2007).
≈ marks a conversion by molar mass, not a printed value.

Key:
Type in all cases: functional
Pseudomonas aeruginosa [1] = assay: Antibacterial activity against Pseudomonas aeruginosa PAO1 by agar dilution method
Staphylococcus aureus [2] = assay: Antibacterial activity against Staphylococcus aureus 209P JC1 by agar dilution method
Staphylococcus aureus [3] = assay: Antibacterial activity against methicillin-resistant Staphylococcus aureus MF490 by agar dilution method
Staphylococcus aureus [4] = assay: Antibacterial activity against methicillin-resistant Staphylococcus aureus MSC03571 by agar dilution method
Escherichia coli = assay: Antibacterial activity against Escherichia coli NIH JC2 by agar dilution method
Pseudomonas aeruginosa [5] = assay: Antibacterial activity against Pseudomonas aeruginosa GN315 by agar dilution method
Pseudomonas aeruginosa [6] = assay: Antibacterial activity against Pseudomonas aeruginosa N101 by agar dilution method
Staphylococcus aureus [7] = assay: Antibacterial activity against methicillin-resistant Staphylococcus aureus by agar dilution method
[8] = Pseudomonas aeruginosa, PAO1, read-out: MIC
[9] = Staphylococcus aureus, 209P JC1, read-out: MIC
[10] = Staphylococcus aureus, read-out: MIC
[11] = Escherichia coli, NIH JC2, read-out: MIC
[12] = Pseudomonas aeruginosa, read-out: MIC
[13] = Staphylococcus aureus, read-out: MIC50
[14] = Staphylococcus aureus, read-out: MIC90

| Compound | MIC (Pseudomonas aeruginosa [1]; [8]) [µg/mL] | MIC (Staphylococcus aureus [2]; [9]) [µg/mL] | MIC (Staphylococcus aureus [3]; [10]) [µg/mL] | MIC (Staphylococcus aureus [4]; [10]) [µg/mL] | MIC (Escherichia coli; [11]) [µg/mL] | MIC (Pseudomonas aeruginosa [5]; [12]) [µg/mL] | MIC (Pseudomonas aeruginosa [6]; [12]) [µg/mL] | MIC50 (Staphylococcus aureus [7]; [13]) [µg/mL] | MIC90 (Staphylococcus aureus [7]; [14]) [µg/mL] | MIC (Staphylococcus aureus [3]) [µg/mL] | MIC (Staphylococcus aureus [4]) [µg/mL] | MIC (Pseudomonas aeruginosa [1]) [µg/mL] | MIC (Staphylococcus aureus [2]) [µg/mL] | MIC (Escherichia coli) [µg/mL] | MIC (Pseudomonas aeruginosa [5]) [µg/mL] | MIC (Pseudomonas aeruginosa [6]) [µg/mL] | MIC50 (Staphylococcus aureus [7]) [µg/mL] | MIC90 (Staphylococcus aureus [7]) [µg/mL] |
| --- | --- | --- | --- | --- | --- | --- | --- | --- | --- | --- | --- | --- | --- | --- | --- | --- | --- | --- |
| CN[C@@H]1[C@@H](O)[C@@H](O[C@@H]2[C@H](O)[C@H](O[C@H]3O[C@H](CN)CC[C@H]3N)[C@@H](N)C[C@H]2NC(=O)[C@@H](O)CCN)O[C@H](CO)[C@H]1O | 2 (≈ 3.53 µM) | 0.13 (≈ 0.229 µM) | 4 (≈ 7.06 µM) | 16 (≈ 28.2 µM) | 2 (≈ 3.53 µM) | 32 (≈ 56.5 µM) |  |  |  |  |  |  |  |  |  |  |  |  |
| NCC[C@H](O)C(=O)N[C@@H]1C[C@H](N)[C@@H](O[C@H]2O[C@H](CN)CC[C@H]2N)[C@@H](Cl)[C@H]1O[C@H]1O[C@H](CO)[C@@H](O)[C@H](N)[C@H]1O | 2 (≈ 3.5 µM) | 0.1 (≈ 0.175 µM) | 3.13 (≈ 5.48 µM) | 6.25 (≈ 10.9 µM) | 1.56 (≈ 2.73 µM) | 50 (≈ 87.6 µM) | 0.5 (≈ 0.876 µM) |  |  |  |  |  |  |  |  |  |  |  |
| NCC[C@H](O)C(=O)N[C@@H]1C[C@H](N)[C@@H](O[C@H]2O[C@H](CN)CC[C@H]2N)[C@@H](N)[C@H]1O[C@H]1O[C@H](CO)[C@@H](O)[C@H](N)[C@H]1O | 2 (≈ 3.63 µM) | 0.13 (≈ 0.236 µM) | 2 (≈ 3.63 µM) | 4 (≈ 7.25 µM) | 2 (≈ 3.63 µM) | 16 (≈ 29 µM) | 0.5 (≈ 0.906 µM) | 0.5 (≈ 0.906 µM) | 0.5 (≈ 0.906 µM) |  |  |  |  |  |  |  |  |  |
| NCC[C@H](O)C(=O)N[C@@H]1C[C@H](N)[C@@H](O[C@H]2O[C@H](CN)CC[C@H]2N)[C@@H](NCc2ccccc2)[C@H]1O[C@H]1O[C@H](CO)[C@@H](O)[C@H](N)[C@H]1O | 32 (≈ 49.9 µM) | 0.13 (≈ 0.203 µM) | 8 (≈ 12.5 µM) | 32 (≈ 49.9 µM) | 4 (≈ 6.23 µM) | 128 (≈ 199 µM) | 1 (≈ 1.56 µM) |  |  |  |  |  |  |  |  |  |  |  |
| NCCN[C@H]1[C@@H](O[C@H]2O[C@H](CO)[C@@H](O)[C@H](N)[C@H]2O)[C@H](NC(=O)[C@@H](O)CCN)C[C@H](N)[C@H]1O[C@H]1O[C@H](CN)CC[C@H]1N | 2 (≈ 3.36 µM) | 0.13 (≈ 0.219 µM) | 2 (≈ 3.36 µM) | 4 (≈ 6.73 µM) | 4 (≈ 6.73 µM) | 64 (≈ 108 µM) |  |  |  |  |  |  |  |  |  |  |  |  |
| CN[C@H]1[C@@H](O[C@H]2O[C@H](CO)[C@@H](O)[C@H](N)[C@H]2O)[C@H](NC(=O)[C@@H](O)CCN)C[C@H](N)[C@H]1O[C@H]1O[C@H](CN)CC[C@H]1N | 4 (≈ 7.07 µM) | 0.25 (≈ 0.442 µM) | 4 (≈ 7.07 µM) | 16 (≈ 28.3 µM) | 2 (≈ 3.54 µM) | 128 (≈ 226 µM) |  |  |  |  |  |  |  |  |  |  |  |  |
| CN(C)[C@H]1[C@@H](O[C@H]2O[C@H](CO)[C@@H](O)[C@H](N)[C@H]2O)[C@H](NC(=O)[C@@H](O)CCN)C[C@H](N)[C@H]1O[C@H]1O[C@H](CN)CC[C@H]1N | 32 (≈ 55.2 µM) | 1 (≈ 1.73 µM) | 32 (≈ 55.2 µM) | > 64 | 16 (≈ 27.6 µM) | > 32 |  |  |  |  |  |  |  |  |  |  |  |  |
| NCC[C@H](O)C(=O)N[C@@H]1C[C@H](N)[C@@H](O[C@H]2O[C@H](CN)CC[C@H]2N)C(O)[C@H]1O[C@H]1O[C@H](CO)[C@@H](O)[C@H](N)[C@H]1O (single isomer, unassigned; form 1) [ARBEKACIN] | 2 (≈ 3.62 µM) | 0.06 (≈ 0.109 µM) |  |  | 1 (≈ 1.81 µM) | 8 (≈ 14.5 µM) | 0.25 (≈ 0.452 µM) | 0.5 (≈ 0.905 µM) | 1 (≈ 1.81 µM) | 2 (≈ 3.62 µM) | 2 (≈ 3.62 µM) |  |  |  |  |  |  |  |
| NCC[C@H](O)C(=O)N[C@@H]1C[C@H](N)[C@@H](O[C@H]2O[C@H](CN)CC[C@H]2N)C(O)[C@H]1O[C@H]1O[C@H](CO)[C@@H](O)[C@H](N)[C@H]1O (single isomer, unassigned; form 2) [ARBEKACIN] |  |  |  |  |  |  |  |  |  | 64 (≈ 116 µM) | 16 (≈ 29 µM) | 2 (≈ 3.62 µM) | 0.06 (≈ 0.109 µM) | 1 (≈ 1.81 µM) | 16 (≈ 29 µM) | 0.25 (≈ 0.452 µM) | 1 (≈ 1.81 µM) | 2 (≈ 3.62 µM) |
